{"source": "patent US11555007B2", "about": "“Compositions and methods for the treatment of neurological diseases” (Cellix Bio Private Limited, priority 2018, dated 2023)", "origin": "cited, not measured here", "test_system": "unipolar or bipolar patients in a major depressive episode", "details": "intravenous ketamine 0.5 mg/kg versus saline; all 8 treated patients"}
{"molecule": "CNC1(c2ccccc2Cl)CCCCC1=O", "note": "(stereo not shown) [ketamine, 2-(2-chlorophenyl)-2-(methylamino)cyclohexan-1-one]", "values": [{"measurement": "improvement in depressive symptoms", "value": "significant improvement in depressive symptoms"}]}
